Molecules are shown by their SMILES. Entries after “also recorded” stand apart in the source; their conditions may differ.

For experiment [1], the target named is T1, PYK2 (Mus musculus, UniProt Q9QVP9).
T1 construct: endogenous in cells; host or cells: murine MC3T3 cells
In words: AIF-stimulated phosphorylation of PYK2 tyrosine 402 in MC3T3 cells (immunoprecipitation, SDS-PAGE). The format is cell-based. The note with it: Aluminum fluorate (AIF), 3 mM PF—Y (FIG. 7). As to the method:
Murine MC3T3 cells were treated with Aluminum fluorate (AIF) alone or in the presence of 3 mM PF—Y. Cells were lysed and the amount of total PYK2 and phosphorylated PYK2 (P-Y402) were determined by immunoprecipitation with antibodies that recognize total PYK2 or phosphorylated Tyr 402 PYK2 followed by SDS-PAGE.

For experiment [2], the system named is human mesenchymal stem cells. In words: Calcium deposition in human MSC. The format is cell-based. The note with it: human MSCs, compared to OS media alone; PF—Y especially the two lower doses (FIG. 5). On the procedure: (§1) Calcium Assay. Calcium deposited by the cells was measured using a diagnostic kit (Sigma #587A). Briefly, cells were rinsed twice with DPBS and hydrolyzed in 0.5 N HCl rotating overnight at 4°. Cells were then scraped and cellular debris was pelleted. Supernatants were used to measure calcium levels following manufacturer's protocol. The absorbance at 570 nm was determined and compared to calcium standards. Calcium levels were corrected for the DNA content in each well.
(§2) Human mesenchymal stem cells were cultured in DMEM-high glucose containing 10% FBS and 10 mM l-glutamine and plated in six well dishes at a density of 3×10^4 cells/well. The day after plating, these cultures were treated and analyzed as in Example 2.

In experiment [3] the test system is murine mesenchymal stem cells. In words: Alkaline phosphatase activity in murine MSC. To be noted: murine MSCs, OS media, 1 μM dexamethasone or increasing doses of PF—Y; units per culture or per μg DNA (FIG. 2). The format is cell-based, mouse. As to the method: (§3) Quantitative Alkaline Phosphatase Measurement. For quantitative alkaline phosphatase measurements, cells were washed twice with Dulbecco's phosphate buffered saline (DPBS) followed by incubation with substrate buffer (50 mM glycine, 1 mM magnesium chloride, pH 10.5) containing 1.3 mg/ml p-nitrophenol phosphate. The levels of alkaline phosphatase activity were determined by measuring the absorbance at 405 nm and compared to p-nitrophenol standards. The level of alkaline phosphatase activity was corrected for the amount of DNA in each sample.
(§4) Murine mesenchymal stem cells isolated from femurs and tibiae of C57BI/6 mice were cultured in alpha-MEM containing 10% fetal bovine serum (FBS) and plated in six well dishes at a density of […]. The day after plating, the media were removed and replaced with media alone, in media with OS, or in OS media containing either 1 μM of dexamethasone or increasing doses of PF—Y for 21 days. “OS” medium” contains 50 μM ascorbic acid and 10 mM β-glycerophosphate. Media were refreshed every 3 days. The amount of alkaline phosphatase was measured on day 7 and day 21. The amounts of secreted calcium were determined only on day 21. The VonKossa stain was done after staining day 21 samples for alkaline phosphatase.

The test system of experiment [4] is murine MC3T3 cells. In words: Alkaline phosphatase activity in MC3T3 cells. The format is cell-based, mouse. The note with it: OS media with increasing doses of PF—Y, units per plate or per μg DNA (FIG. 6). On the procedure: as §3
MC3T3 cells were cultured in alpha-MEM media containing 10% FBS and plated in six well dishes at a density of 5×10^4 cells/well. The day after plating, the media were removed and OS media with increasing doses of PF—Y were added. Media were refreshed every 3 days. The amount of alkaline phosphatase was measured as in Example 2 and 3.

For experiment [5], the system named is murine mesenchymal stem cells. In words: Calcium deposition in murine MSC. The format is cell-based, mouse. To be noted: murine MSCs, OS media, day 21, 1 μM dexamethasone or increasing doses of PF—Y; μg per culture or per μg DNA (FIG. 3). As to the method: as §1, §4
Experiment [6] relates to human mesenchymal stem cells. In words: Alkaline phosphatase activity in human MSC. The format is cell-based. The note with it: human MSCs, OS media; units per μg DNA (FIG. 4). On the procedure:
as §3, §2

The test system of experiment [7] is ovariectomized (OVX) rat model. In words: OVX rat model: pQCT analysis of distal femoral metaphysis. The format is in vivo. To be noted: OVX rats vs vehicle, PF—X 10 or 30 mg/kg/d, 28 days; for cortical bone content / total bone mineral content / total bone mineral density: EE 30 μg/kg/d.
The nature of experiment [8]: OVX rat model: body weight. The format is in vivo. The note with it: OVX rats, oral gavage 28 days, vs vehicle-treated OVX; PF—X (di-hydrochloride salt) 10 or 30 mg/kg/d, EE 30 μg/kg/d.
Experiment [9] deals with ovariectomized (OVX) rat model. In words: OVX rat model: serum osteocalcin by RIA. To be noted: OVX rats, 2 weeks post-treatment, vs vehicle-treated OVX rats. The format is in vivo.
For experiment [10], the system named is ovariectomized (OVX) rat model. In words: OVX rat model: trabecular bone histomorphometry of proximal tibial metaphysis. To be noted: OVX rats vs vehicle, PF—X 30 mg/kg/d, 28 days; for bone formation rate/BV / bone formation rate/TV / mineral apposition rate / osteoclast number / osteoclast surface / percent mineralizing surface: EE 30 μg/kg/d. The format is in vivo.

T1 sequence (Q9QVP9 whole entry): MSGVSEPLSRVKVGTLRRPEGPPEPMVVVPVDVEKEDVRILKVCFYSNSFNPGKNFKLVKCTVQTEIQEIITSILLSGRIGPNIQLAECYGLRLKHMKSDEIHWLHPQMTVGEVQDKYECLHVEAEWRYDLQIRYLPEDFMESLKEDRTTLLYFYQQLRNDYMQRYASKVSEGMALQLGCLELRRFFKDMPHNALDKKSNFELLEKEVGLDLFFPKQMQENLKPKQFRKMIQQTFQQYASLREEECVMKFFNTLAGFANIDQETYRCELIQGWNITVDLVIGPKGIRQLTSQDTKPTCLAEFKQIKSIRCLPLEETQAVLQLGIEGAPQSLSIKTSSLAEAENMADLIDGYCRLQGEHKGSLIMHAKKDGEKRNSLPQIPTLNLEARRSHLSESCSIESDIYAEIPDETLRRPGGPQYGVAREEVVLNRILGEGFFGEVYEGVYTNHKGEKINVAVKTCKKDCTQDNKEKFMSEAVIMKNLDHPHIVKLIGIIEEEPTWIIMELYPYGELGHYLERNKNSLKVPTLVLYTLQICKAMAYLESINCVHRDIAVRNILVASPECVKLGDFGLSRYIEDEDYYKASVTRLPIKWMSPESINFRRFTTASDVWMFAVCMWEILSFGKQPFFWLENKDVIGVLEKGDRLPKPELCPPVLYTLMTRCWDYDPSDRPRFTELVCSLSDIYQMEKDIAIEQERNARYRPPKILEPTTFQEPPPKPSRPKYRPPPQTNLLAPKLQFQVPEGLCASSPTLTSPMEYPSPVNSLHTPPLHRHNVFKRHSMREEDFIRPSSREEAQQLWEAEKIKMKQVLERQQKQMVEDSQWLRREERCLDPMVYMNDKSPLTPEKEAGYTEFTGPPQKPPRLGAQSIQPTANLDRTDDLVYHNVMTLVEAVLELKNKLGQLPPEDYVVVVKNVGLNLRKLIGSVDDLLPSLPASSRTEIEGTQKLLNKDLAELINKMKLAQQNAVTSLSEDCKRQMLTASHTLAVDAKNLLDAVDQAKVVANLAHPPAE

Take `Cc1cc(C)c(/C=C2\C(=O)Nc3ccc(O)cc32)[nH]1` [PF—Y]: the “AIF-induced phosphorylation of tyrosine 402 of PYK2” value in [1] is “inhibited; also recorded: inhibition”. In addition, the calcium deposition result in [2] and in experiment [5] was “increased” throughout. For the same compound, the alkaline phosphatase activity result in [3], in experiment [4] and in experiment [6] was “elevated” in each case.

As for `C#C[C@]1(O)CC[C@H]2[C@@H]3CCc4cc(O)ccc4[C@H]3CC[C@@]21C` [EE, 17[…]-ethynyl estradiol, reference compound], in [7], the cortical bone content result is given as “higher”, the “total bone mineral content” value was “higher” and the “total bone mineral density” value was “higher”. In [8], the body weight entry was “prevented OVX-induced weight gain”. In addition, in [9], the Serum osteocalcin result is “significantly decreased”. In addition, in experiment [10], the “bone formation rate/BV” value is recorded as “decreases”, the “bone formation rate/TV” value was “decreases”, the mineral apposition rate result was “decreases” and the osteoclast number entry is recorded as “decreases”. Besides, in experiment [10], the osteoclast surface entry is recorded as “decreases” and the percent mineralizing surface result is “decreases”.

As for `CN(c1ccccc1CNc1nc(Nc2ccc3c(c2)CC(=O)N3)ncc1C(F)(F)F)S(C)(=O)=O` [PF—X], in [7], the total bone area entry is given as “significant increases”, the trabecular bone density result is “significant increases”, the cortical bone content result is “significant increases” and the “total bone mineral content” value is “significant increases”. Moreover, the “total bone mineral density” value in experiment [7] is given as “significant increases”. Further, in [8], the body weight entry is on record as “No significant difference”. For the same compound, the Serum osteocalcin result in experiment [9] is on record as “significantly increased”. Further, in experiment [10], the trabecular bone volume result is recorded as “significant increase”, the trabecular thickness result is “significant increase”, the “bone formation rate/BV” value is given as “significant increase” and the “bone formation rate/TV” value was “significant increase”. Further, in [10], the mineral apposition rate entry is recorded as “significant increase”, the osteoclast number result is “significant decrease”, the osteoclast surface entry was “significant decrease” and the percent mineralizing surface entry is given as “significant increase”.

The values are drawn from patent US20090118316A1, “Methods for Augmenting Bone” (PFZER INC., priority 2004, published 2009).
